Source: patent US8927576B2, “HCV inhibitor and therapeutic agent combinations” (PTC Therpeutics, Inc., priority 2009, dated 2015)

What follows are molecules tested on HCV replicon (replicon cells) (assay: Replicon response to antiviral agent(s): luciferase replicon inhibition, combination of HCV inhibitor and therapeutic agent). Settings: in combination with Cpd 661; range over the combination ratios (Cpd 661:agent) tested; replicon cells treated three days; luciferase (Bright Glo).
Format: cell-based
Method: Replicon cells were seeded at 5000 cells/well in 96-well plates and were treated with a HCV inhibitor and/or a HCV therapeutic agent for three days. The growth medium consisted of a final concentration of 0.5% DMSO and 10% fetal bovine serum.
The HCV therapeutic agents, an interferon-α, a NS5b HCV polymerase inhibitor Compound 1p and a NS3/NS4a HCV protease inhibitor Compound 2p in the compound treatment samples were each serially diluted to the concentration ratios indicated in Table 1. Replicon cells in the untreated control were not treated with a HCV inhibitor or therapeutic agent. To each concentration of therapeutic agent, the HCV inhibitor Compound 661 was titrated. After three days, Bright Glo agent was used to detect luciferase activity. The activity of the medium without cells was measured as the background control. Replicon inhibition was calculated using the following formula: […]

Molecule	Combination Index IC50	Combination Index IC75	Combination Index IC90
CC(C)CCn1c(=O)c(C2=Nc3ccccc3S(=O)(=O)N2)c(O)c2ccccc21 [Cpd 1p, 3-(1,1-dioxido-2H-1,2,4-benzothiadiazin-3-yl)-4-hydroxy-1-(3-methylbutyl)quinolin-2(1H)-one]	0.19-0.94	0.13-0.61	0.09-0.4
C=C[C@H]1C[C@@]1(NC(=O)[C@@H]1C[C@@H](Oc2cc(-c3ccccc3)nc3cc(OC)ccc23)CN1C(=O)[C@@H](NC(=O)OC(C)(C)C)C(C)(C)C)C(=O)NS(=O)(=O)C1CC1 [Cpd 2p, N-(tert-butoxycarbonyl)-3-methyl-L-valyl-(4R)-N-{(1S,2R)-1-[(cyclopropylsulfonyl)carbamoyl]-2-ethenylcyclopropyl}-4-[(7-methoxy-2-phenylquinolin-4-yl)oxy]-L-prolinamide]	0.26-0.91	0.27-0.66	0.29-0.48
interferon-α	0.36-0.84	0.42-0.78	0.35-0.72
